Laboratory results reported in publication PMC6273488, “Synthesis and Biological Evaluation of Benzochromenopyrimidinones as Cholinesterase Inhibitors and Potent Antioxidant, Non-Hepatotoxic Agents for Alzheimer’s Disease” (Molecules, 2016).
Where two headings read alike, the source gives them in different places.

Experiments:
[1] = molecular target: T1, horse serum BuChE (eqBuChE) (Equus caballus, UniProt P81908); details: cited from earlier work
T1 construct: BuChE from horse serum (lyophilized powder, Sigma-Aldrich); purchased Sigma-Aldrich; host or cells: horse serum

[2] = molecular target: T2, Electrophorus electricus AChE (EeAChE) (Electrophorus electricus, UniProt O42275); details: cited from earlier work
T2 construct: purified AChE from Electrophorus electricus (Type V-S, Sigma-Aldrich); purchased Sigma-Aldrich Type V-S

in vitro [3] = details: PAMPA, pH 7.4
Protocol: Penetration across the BBB is an essential property for compounds targeting the CNS. […] The filter membrane of the donor plate was coated with PBL (Polar Brain Lipid, Avanti, AL, USA) in dodecane (4 µL of 20 mg/mL PBL in dodecane) and the acceptor well was filled with 300 µL of PBS pH 7.4 buffer ([…]). Tested compounds were dissolved first in DMSO and that diluted with PBS pH 7.4 to reach the final concentration 100 µM in the donor well. […] 300 µL of the donor solution was added to the donor wells ([…]) and the donor filter plate was carefully put on the acceptor plate so that coated membrane was “in touch” with both donor solution and acceptor buffer. Test compound diffused from the donor well through the lipid membrane (Area = 0.28 cm^2) to the acceptor well. The concentration of the drug in both donor and the acceptor wells was assessed after 3, 4, 5 and 6 h of incubation in quadruplicate using the UV plate reader Synergy HT (Biotek, Winooski, VT, USA) at the maximum absorption wavelength of each compound.

[4] = ORAC-FL; cited from earlier work
HepG2 cells = test: in vitro; type: cell-based; details: HepG2, MTT, concentrations up to 1000 μM
Protocol: (§1) A prerequisite for any effective lead drug is to keep its cytotoxicity at the lowest possible level. In this regard, we submitted the four most promising compounds (3Ab, 3Bb, 3Cb and 3Ba) to an in vitro toxicologic evaluation (MTT assay) using human hepatocellular carcinoma cell line (HepG2) which represents a good probe to evaluate hepatotoxic effects. […].
(§2) HepG2 cells were purchased from American Type Culture Collection. The cells were cultured in Eagle’s Minimum Essential Medium (Ozyme, France) supplemented with 10% fetal bovine serum, 1X non-essential amino acids, 100 units/mL penicillin and […] streptomycin (Dutscher, Brumath, France). Cultures were kept under a CO2/air (5%/95%) humidified atmosphere at 37 °C. Prior to the experiment, cells were seeded in 96-well culture plates at a density of 0.1 × 10^6 cells per well. After 24 h of incubation, the culture medium was refreshed and 100 µL of the test compounds or DMSO (0.1%) were added. […] For the MTT assay, after 24 h of treatment, cells were incubated with 50 µL MTT (0.5 mg/mL, Sigma Aldrich, city, France) at 37 °C for 2 h. Plates were centrifuged, MTT was removed and 100 µL DMSO was distributed per well. The absorbance at 570 nm was measured using microplate reader (brand). Cell viability was expressed as percentage of cell viability compared to controls (DMSO, 0.1%).

in vitro [5] = type: cell-based; details: 24 h, MTT, read-out: In vitro toxicity (% cell viability)
Protocol: as §1, §2

[6] = related alkaloid and synthetic compounds

T1 sequence (P81908 whole entry): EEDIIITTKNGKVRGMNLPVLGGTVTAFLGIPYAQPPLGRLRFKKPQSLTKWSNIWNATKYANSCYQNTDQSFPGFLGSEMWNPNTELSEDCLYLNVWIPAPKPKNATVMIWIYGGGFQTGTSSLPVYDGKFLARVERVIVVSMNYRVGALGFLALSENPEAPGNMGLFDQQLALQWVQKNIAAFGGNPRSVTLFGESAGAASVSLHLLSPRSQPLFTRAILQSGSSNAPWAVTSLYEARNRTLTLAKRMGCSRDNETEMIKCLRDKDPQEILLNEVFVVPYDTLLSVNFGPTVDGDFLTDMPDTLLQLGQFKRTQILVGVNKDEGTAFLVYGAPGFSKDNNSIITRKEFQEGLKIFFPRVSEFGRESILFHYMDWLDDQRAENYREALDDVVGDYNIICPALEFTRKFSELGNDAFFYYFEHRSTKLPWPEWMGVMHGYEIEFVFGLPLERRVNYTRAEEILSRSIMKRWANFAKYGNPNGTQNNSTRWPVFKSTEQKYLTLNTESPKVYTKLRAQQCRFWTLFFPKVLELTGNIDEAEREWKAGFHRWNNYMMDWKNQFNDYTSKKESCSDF
T2 sequence (O42275 24-633): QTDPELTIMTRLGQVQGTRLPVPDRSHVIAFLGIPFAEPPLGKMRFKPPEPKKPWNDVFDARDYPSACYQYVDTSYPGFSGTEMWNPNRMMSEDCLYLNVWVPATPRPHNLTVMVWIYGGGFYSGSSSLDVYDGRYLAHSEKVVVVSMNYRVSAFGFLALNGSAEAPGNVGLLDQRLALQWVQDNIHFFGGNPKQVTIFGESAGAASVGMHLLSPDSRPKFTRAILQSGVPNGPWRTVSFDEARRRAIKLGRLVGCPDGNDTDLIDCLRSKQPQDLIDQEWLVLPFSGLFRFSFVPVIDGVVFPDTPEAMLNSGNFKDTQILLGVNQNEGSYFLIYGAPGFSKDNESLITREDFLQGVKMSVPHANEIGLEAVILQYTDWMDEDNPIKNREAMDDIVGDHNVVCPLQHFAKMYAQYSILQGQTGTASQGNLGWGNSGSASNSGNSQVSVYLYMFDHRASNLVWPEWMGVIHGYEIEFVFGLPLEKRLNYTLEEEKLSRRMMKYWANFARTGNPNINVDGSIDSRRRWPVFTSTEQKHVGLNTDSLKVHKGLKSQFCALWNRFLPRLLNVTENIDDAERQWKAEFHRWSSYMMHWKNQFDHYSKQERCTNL

Question: For `O=c1c2ccccc2nc2n1CCCCC2` [Ic], which IC50 ([1]; unit inferred) is on record?
Answer: The IC50 was greater than 500 µM.

Question: And the IC50 [2, 6]?
Answer: The IC50 was 279 µM.

Question: Which IC50 ([1]; unit inferred) does the source give for `O=c1c2ccccc2nc2n1CCCC2` [Ib] here?
Answer: Its IC50 is greater than 500 µM.

Question: What about the IC50 [2, 6] of the same compound?
Answer: The IC50 was 38.6 µM.

Question: Which IC50 [1] does the source give for `C[n+]1c2n(c(=O)c3ccccc31)CCc1c-2[nH]c2ccccc12` [II, dehydroevodiamine chloride] here?
Answer: The IC50 was 8.4 µM.

Question: And the IC50 [2]?
Answer: Its IC50 is 6.3 µM.

Question: For `Nc1c2c(nc3ccccc13)CCCC2` [Tacrine, tacrine, reference compound], which Papp (in vitro [3]) is on record?
Answer: Its Papp is 5.3 ± 0.19 ×10⁻⁶ cm/s.

Question: What about the ORAC [4] of the same compound?
Answer: Its ORAC is 0.2 ± 0.1 [22] Trolox equivalents.

Question: What about the “hepatotoxicity on HepG2 cells (in words)” value (HepG2 cells) of the same compound?
Answer: Its value is “safe up to 100 µM but significantly decreased cell viability above 300 μM”.

Question: What about the viability at 24 h, 1 µM (in vitro [5]; HepG2, 1 µM) of the same compound?
Answer: Its viability at 24 h, 1 µM is 105 ± 4.6%.

Question: What about the viability at 24 h, 3 µM (in vitro [5]; HepG2, 3 µM) of the same compound?
Answer: Its viability at 24 h, 3 µM is 104 ± 8.7%.

Question: What about the viability at 24 h, 10 µM (in vitro [5]; HepG2, 10 µM) of the same compound?
Answer: The viability at 24 h, 10 µM was 97 ± 6.5%.

Question: And the viability at 24 h, 30 µM (in vitro [5]; HepG2, 30 µM)?
Answer: Its viability at 24 h, 30 µM is 93 ± 2.7%.

Question: And the viability at 24 h, 100 µM (in vitro [5]; HepG2, 100 µM)?
Answer: Its viability at 24 h, 100 µM is 95.2 ± 6%.

Question: And the viability at 24 h, 300 µM (in vitro [5]; HepG2, 300 µM)?
Answer: Its viability at 24 h, 300 µM is 47.6 ± 5.6%.

Question: What about the viability at 24 h, 1 mM (in vitro [5]; HepG2, 1 mM) of the same compound?
Answer: The viability at 24 h, 1 mM was 13.9 ± 0.8%.
